ChEMBL document CHEMBL1687791, “Identification and characterization of four azole-resistant erg3 mutants of Candida albicans” (2010)
Values after ≈ are worked out from the molar mass of the structure shown.

Key:
Type in all cases: functional
[1] = system: Candida albicans; experiment: Antifungal activity against Candida albicans isolate 12 harboring ERG3 W332R mutant gene assessed as eburicol content in total sterol composition at 0.5 times MIC by GC-MS analysis
[2] = system: Candida albicans; experiment: Antifungal activity against Candida albicans isolate 1008 harboring ERG3 K97E, L193P, V237A, A351V, A353T and ERG11 E266D mutant genes by broth microdilution method
[3] = system: Candida albicans; experiment: Antifungal activity against Candida albicans isolate 490 harboring ERG3 D147G, T330A, A351V and ERG11 F72S, T229A, E266D, N440S, V488I, R523G mutant genes by broth microdilution method in presence of 10 uM drug efflux inhibitor FK506
[4] = system: Candida albicans; experiment: Antifungal activity against Candida albicans isolate 177 by broth dilution method
[5] = system: Candida albicans; experiment: Antifungal activity against Candida albicans isolate 177 assessed as ergosterol content in total sterol composition at 0.5 times MIC by GC-MS analysis
[6] = system: Candida albicans; experiment: Antifungal activity against Candida albicans isolate 488 harboring ERG3 H243N, T330A, A351V and ERG11 D225G, E266D, E391G, V488I mutant genes by broth microdilution method in presence of 10 uM drug efflux inhibitor FK506
[7] = system: Candida albicans; experiment: Antifungal activity against Candida albicans isolate 1008 harboring ERG3 K97E, L193P, V237A, A351V, A353T and ERG11 E266D mutant genes by broth microdilution method in presence of 10 uM drug efflux inhibitor FK506
[8] = system: Candida albicans; experiment: Antifungal activity against Candida albicans isolate 14 assessed as ergosterol content in total sterol composition at 0.5 times MIC by GC-MS analysis
[9] = system: Candida albicans; experiment: Antifungal activity against Candida albicans isolate 6 assessed as eburicol content in total sterol composition at 0.5 times MIC by GC-MS analysis
[10] = system: Candida albicans; experiment: Antifungal activity against Candida albicans isolate 1008 harboring ERG3 K97E, L193P, V237A, A351V, A353T and ERG11 E266D mutant genes assessed as eburicol content in total sterol composition at 0.5 times MIC by GC-MS analysis
[11] = system: Candida albicans; experiment: Antifungal activity against Candida albicans isolate 6 assessed as 14alpha-methylergosta-8,24(28)-dien-3beta,6alpha-diol content in total sterol composition at 0.5 times MIC by GC-MS analysis
[12] = system: Candida albicans; experiment: Antifungal activity against Candida albicans isolate 12 harboring ERG3 W332R mutant gene by broth microdilution method
[13] = system: Candida albicans; experiment: Antifungal activity against Candida albicans isolate 12 harboring ERG3 W332R mutant gene by broth microdilution method in presence of 10 uM drug efflux inhibitor FK506
[14] = system: Candida albicans; experiment: Antifungal activity against Candida albicans isolate 12 harboring ERG3 W332R mutant gene assessed as ergosterol content in total sterol composition at 0.5 times MIC by GC-MS analysis
[15] = system: Candida albicans; experiment: Antifungal activity against Candida albicans isolate 490 harboring ERG3 D147G, T330A, A351V and ERG11 F72S, T229A, E266D, N440S, V488I, R523G mutant genes assessed as ergosterol content in total sterol composition at 0.5 times MIC by GC-MS analysis
[16] = system: Candida albicans; experiment: Antifungal activity against Candida albicans isolate 6 by broth microdilution method
[17] = system: Candida albicans; experiment: Antifungal activity against Candida albicans isolate 1008 harboring ERG3 K97E, L193P, V237A, A351V, A353T and ERG11 E266D mutant genes assessed as lanosterol/obtusifoliol content in total sterol composition at 0.5 times MIC by GC-MS analysis
[18] = system: Candida albicans; experiment: Antifungal activity against Candida albicans isolate 488 harboring ERG3 H243N, T330A, A351V and ERG11 D225G, E266D, E391G, V488I mutant genes assessed as eburicol content in total sterol composition at 0.5 times MIC by GC-MS analysis
[19] = system: Candida albicans; experiment: Antifungal activity against Candida albicans isolate 6 assessed as ergosterol content in total sterol composition at 0.5 times MIC by GC-MS analysis
[20] = system: Candida albicans; experiment: Antifungal activity against Candida albicans isolate 177 assessed as eburicol content in total sterol composition at 0.5 times MIC by GC-MS analysis
[21] = system: Candida albicans; experiment: Antifungal activity against Candida albicans isolate 6 by broth microdilution method in presence of 10 uM drug efflux inhibitor FK506
[22] = system: Candida albicans; experiment: Antifungal activity against Candida albicans isolate 1008 harboring ERG3 K97E, L193P, V237A, A351V, A353T and ERG11 E266D mutant genes assessed as ergosta 7,22-dienol content in total sterol composition at 0.5 times MIC by GC-MS analysis
[23] = system: Candida albicans; experiment: Antifungal activity against Candida albicans isolate 14 by broth microdilution method in presence of 10 uM drug efflux inhibitor FK506
[24] = system: Candida albicans; experiment: Antifungal activity against Candida albicans isolate 177 assessed as 14alpha-methylergosta-8,24(28)-dien-3beta,6alpha-diol content in total sterol composition at 0.5 times MIC by GC-MS analysis
[25] = system: Candida albicans; experiment: Antifungal activity against Candida albicans isolate 490 harboring ERG3 D147G, T330A, A351V and ERG11 F72S, T229A, E266D, N440S, V488I, R523G mutant genes assessed as 14alpha-methyl fecosterol content in total sterol composition at 0.5 times MIC by GC-MS analysis
[26] = system: Candida albicans; experiment: Antifungal activity against Candida albicans isolate 177 assessed as 14alpha-methyl fecosterol content in total sterol composition at 0.5 times MIC by GC-MS analysis
[27] = system: Candida albicans; experiment: Antifungal activity against Candida albicans isolate 14 by broth microdilution method
[28] = system: Candida albicans; experiment: Antifungal activity against Candida albicans isolate 14 assessed as lanosterol/obtusifoliol content in total sterol composition at 0.5 times MIC by GC-MS analysis
[29] = system: Candida albicans; experiment: Antifungal activity against Candida albicans isolate 12 harboring ERG3 W332R mutant gene assessed as 14alpha-methyl fecosterol content in total sterol composition at 0.5 times MIC by GC-MS analysis
[30] = system: Candida albicans; experiment: Antifungal activity against Candida albicans isolate 1008 harboring ERG3 K97E, L193P, V237A, A351V, A353T and ERG11 E266D mutant genes assessed as 14alpha-methyl fecosterol content in total sterol composition at 0.5 times MIC by GC-MS analysis
[31] = system: Candida albicans; experiment: Antifungal activity against Candida albicans isolate 490 harboring ERG3 D147G, T330A, A351V and ERG11 F72S, T229A, E266D, N440S, V488I, R523G mutant genes assessed as 14alpha-methylergosta-8,24(28)-dien-3beta,6alpha-diol content in total sterol composition at 0.5 times MIC by GC-MS analysis
[32] = system: Candida albicans; experiment: Antifungal activity against Candida albicans isolate 12 harboring ERG3 W332R mutant gene assessed as 14alpha-methylergosta-8,24(28)-dien-3beta,6alpha-diol content in total sterol composition at 0.5 times MIC by GC-MS analysis
[33] = system: Candida albicans; experiment: Antifungal activity against Candida albicans isolate 488 harboring ERG3 H243N, T330A, A351V and ERG11 D225G, E266D, E391G, V488I mutant genes assessed as 14alpha-methyl fecosterol content in total sterol composition at 0.5 times MIC by GC-MS analysis
[34] = system: Candida albicans; experiment: Antifungal activity against Candida albicans isolate 488 harboring ERG3 H243N, T330A, A351V and ERG11 D225G, E266D, E391G, V488I mutant genes assessed as lanosterol/obtusifoliol content in total sterol composition at 0.5 times MIC by GC-MS analysis
[35] = system: Candida albicans; experiment: Antifungal activity against Candida albicans isolate 490 harboring ERG3 D147G, T330A, A351V and ERG11 F72S, T229A, E266D, N440S, V488I, R523G mutant genes by broth microdilution method
[36] = system: Candida albicans; experiment: Antifungal activity against Candida albicans isolate 488 harboring ERG3 H243N, T330A, A351V and ERG11 D225G, E266D, E391G, V488I mutant genes assessed as ergosterol content in total sterol composition at 0.5 times MIC by GC-MS analysis
[37] = system: Candida albicans; experiment: Antifungal activity against Candida albicans isolate 12 harboring ERG3 W332R mutant gene assessed as lanosterol/obtusifoliol content in total sterol composition at 0.5 times MIC by GC-MS analysis
[38] = system: Candida albicans; experiment: Antifungal activity against Candida albicans isolate 488 harboring ERG3 H243N, T330A, A351V and ERG11 D225G, E266D, E391G, V488I mutant genes by broth microdilution method
[39] = system: Candida albicans; experiment: Antifungal activity against Candida albicans isolate 177 by broth dilution method in presence of 10 uM drug efflux inhibitor FK506
[40] = system: Candida albicans; experiment: Antifungal activity against Candida albicans isolate 14 assessed as 14alpha-methylergosta-8,24(28)-dien-3beta,6alpha-diol content in total sterol composition at 0.5 times MIC by GC-MS analysis

`C[C@@H](c1ncncc1F)[C@](O)(Cn1cncn1)c1ccc(F)cc1F` [VORICONAZOLE] was tested. Which Activity [1] did it give?
The Activity was 9.9%.

What about the MIC [2] of the same compound?
Its MIC is greater than 16 µg/mL.

And the MIC [3]?
The MIC was 0.0625 µg/mL.

What about the MIC [4] of the same compound?
Its MIC is 16 µg/mL (≈ 45.8 µM).

And the Activity [5]?
Its Activity is 45%.

What about the MIC [6] of the same compound?
The MIC was 0.0625 µg/mL.

What about the MIC [7] of the same compound?
The MIC was greater than 16 µg/mL.

What about the Activity [8] of the same compound?
The Activity was 47.3%.

And the Activity [9]?
The Activity was 4.8%.

And the Activity [10]?
Its Activity is 13.7%.

What about the Activity [11] of the same compound?
Its Activity is 37.2%.

What about the MIC [12] of the same compound?
Its MIC is greater than 16 µg/mL.

And the MIC [13]?
The MIC was greater than 16 µg/mL.

What about the Activity [14] of the same compound?
Its Activity is 2.9%.

And the Activity [15]?
The Activity was 6.3%.

What about the MIC [16] of the same compound?
Its MIC is 16 µg/mL (≈ 45.8 µM).

What about the Activity [17] of the same compound?
The Activity was 19%.

And the Activity [18]?
Its Activity is 7.5%.

What about the Activity [19] of the same compound?
Its Activity is 46.1%.

And the Activity [20]?
Its Activity is 5%.

What about the MIC [21] of the same compound?
Its MIC is less than 0.0625 µg/mL.

What about the Activity [22] of the same compound?
The Activity was 2.2%.

And the MIC [23]?
Its MIC is less than 0.0625 µg/mL.

And the Activity [24]?
The Activity was 35.4%.

And the Activity [25]?
Its Activity is 69.1%.

What about the Activity [26] of the same compound?
Its Activity is 2.9%.

What about the MIC [27] of the same compound?
Its MIC is 0.0625 µg/mL (≈ 0.179 µM).

What about the Activity [28] of the same compound?
Its Activity is 24.1%.

And the Activity [29]?
Its Activity is 69.2%.

And the Activity [30]?
Its Activity is 65.1%.

What about the Activity [31] of the same compound?
Its Activity is 13.5%.

And the Activity [32]?
Its Activity is 1.8%.

What about the Activity [33] of the same compound?
The Activity was 57.2%.

What about the Activity [34] of the same compound?
The Activity was 15.8%.

What about the MIC [35] of the same compound?
The MIC was greater than 16 µg/mL.

What about the Activity [36] of the same compound?
Its Activity is 8%.

And the Activity [37]?
The Activity was 16.2%.

What about the MIC [38] of the same compound?
Its MIC is greater than 16 µg/mL.

And the MIC [39]?
Its MIC is less than 0.0625 µg/mL.

And the Activity [40]?
The Activity was 28.6%.

What does the source list for `CC(=O)N1CCN(c2ccc(OCC3COC(Cn4ccnc4)(c4ccc(Cl)cc4Cl)O3)cc2)CC1` (centres undefined) [KETOCONAZOLE]?
MIC [2]: > 16 µg/mL; MIC [4]: 16 µg/mL (≈ 30.1 µM); MIC [12]: > 16 µg/mL; MIC [16]: 16 µg/mL (≈ 30.1 µM); MIC [27]: 0.0625 µg/mL (≈ 0.118 µM); MIC [35]: 8 µg/mL (≈ 15.1 µM); MIC [38]: 8 µg/mL (≈ 15.1 µM)

Which results are given for `CCC(C)n1ncn(-c2ccc(N3CCN(c4ccc(OCC5COC(Cn6cncn6)(c6ccc(Cl)cc6Cl)O5)cc4)CC3)cc2)c1=O` (centres undefined) [ITRACONAZOLE]?
MIC [2]: > 16 µg/mL; MIC [4]: 16 µg/mL (≈ 22.7 µM); MIC [12]: > 16 µg/mL; MIC [16]: 16 µg/mL (≈ 22.7 µM); MIC [27]: 0.0625 µg/mL (≈ 0.0886 µM); MIC [35]: > 16 µg/mL; MIC [38]: > 16 µg/mL
